The values that follow come from patent US9447083B2, “N-acylhydrazone derivatives for selective T cell inhibitor and anti-lymphoid malignancy drug” (CHONG KUN DANG PHARMACEUTICAL CORP., priority 2012, dated 2016).

Structures are written as SMILES.

The test system of one series is Molt4. The series can be described thus: Apoptosis of lymphoid malignancy cell lines: Molt4. In kind it is cell-based. The following applies: Homo sapiens, MOLT-4, 24 h, read-out: Administration Dose (mean ± SD, μmol/L) Lethal Dose 50 (Apoptosis). As to the method: (§1) Each of the acute T cell leukemia cell lines Jurkat, Molt4 and CCRF-CEM, the acute B cell leukemia cell line Raji and the […] cell lines KMS11, KMS12BM, KMS26, KMS28BM, and IM9 was re-suspended in 10% FBS-containing RPMI medium at a concentration of 1.5×10^5 cells/mL, and 200 μL of each of the cell suspensions was cultured in a flat bottom 96-well plate (Costar). The acute NK cell lymphoma cell line NK-92MI was re-suspended in α-MEM medium (supplemented with 20% FBS, 1×MEM vitamine solution, 50 μM 2-mercaptoethanol and 1× penicillin/streptomycin) at a concentration of 1.5×10^5 cells/mL, and 200 μL of the cell suspension was cultured in a flat bottom 96-well plate. The cells in each well was treated with 10 μL of each of 0.1, 0.25, 0.5, 0.75 and 1 μM of the compound diluted with RPMI medium, followed by that the cells were incubated in a 5% CO2 incubator at 37° C. for 24 hours. In a vehicle control group, cells were treated with 10 μL of medium containing 0.05% dimetylsulfoxide (DMSO, Sigma).
The cells were collected, and then the apoptosis thereof was analyzed by a flow cytometer after staining with Annexin V-7-AAD. The incubated cells were collected, placed in a 5-mL FACS tube (BD Falcon) and washed with 1 mL of fluorescence activated cell sorting (FACS) buffer (1%. FBS and 0.1% sodium azaide in PBS). The cells were re-suspended in 0.1 mL of FACS buffer, followed by that the cells were treated and stained with phycoerythrin-Annexin V at room temperature for 10 minutes. After 10 minutes of staining, the cells were treated and stained with 7-AAD at room temperature for 5 minutes. The stained cells were suspended in 0.3 mL of FACS buffer, and then analyzed by a flow cytometer. […] Thus, compounds 065, 108, 229 and 457 of the present invention can be used as a novel anti-lymphoid malignancy drug.

For another series, the system named is KMS12BM. The series can be described thus: Apoptosis of lymphoid malignancy cell lines: KMS12BM. In kind it is cell-based. The conditions noted are these: Homo sapiens, KMS-12-BM, Multiple myeloma, 24 hours, read-out: Administration Dose (mean ± SD, μmol/L) Lethal Dose 50 (Apoptosis). The procedure:
as §1, with “In a vehicle control group, cells were treated with 10 μL of medium containing 0.05% dimetylsulfoxide (DMSO, Sigma).” left out
(§2) The cells were collected, and then the apoptosis thereof was analyzed by a flow cytometer after staining with Annexin V-7-AAD. The incubated cells were collected, placed in a 5-mL FACS tube (BD Falcon) and washed with 1 mL of fluorescence activated cell sorting (FACS) buffer (1%. FBS and 0.1% sodium azaide in PBS). […] The stained cells were suspended in 0.3 mL of FACS buffer, and then analyzed by a flow cytometer. […]

The subject of the next series is KMS26. The series can be described thus: Apoptosis of lymphoid malignancy cell lines: KMS26. In kind it is cell-based. The following applies: KMS-26; KMS26, Multiple myeloma, 24 hours; read-out: Administration Dose (mean ± SD, μmol/L) Lethal Dose 50 (Apoptosis). As to the method:
as §1, with “In a vehicle control group, cells were treated with 10 μL of medium containing 0.05% dimetylsulfoxide (DMSO, Sigma).” left out
as §2

Series [1] is described as follows: Toxicity test, single oral dose in ICR male mice. The conditions noted are these: mouse, in vivo, read-out: lethal dose 50 (LD50). The procedure: To ICR male mice, a suspension of Compound 229 in 0.5% methylcellulose solution was administered orally once by each doses of 10 mg/kg, 50 mg/kg and 100 mg/kg, and the survival rate and body weight of the mice were investigated for 7 days. After such administration, mouse death or not, clinical condition and body weight change were monitored. Hematology test and biochemical examination of blood were carried out.

What is called LD50 is the dose expected to kill half of the subjects tested.

Consider `Cc1cc(C)c(OCC(=O)N/N=C/c2ccc3cc[nH]c3c2)c(C2CCOC2)c1` (stereo not shown) [Compound 229, (E)-N′-((1H-indol-6-yl)methylene)-2-(2,4-dimethyl-6-(tetrahydrofuran-3-yl)phenoxy)acetohydrazide], for which the EC50 in the series on Molt4 worked out at 1.3 ± 0.05 µmol/L; with KMS12BM it was 0.94 ± 0.09 µmol/L; with KMS26, 1.31 ± 0.35 µmol/L. Also, the LD50 at 7 days in series [1] was determined as 100 mg/kg.
